Results from PubChem BioAssay AID1918995 (Molecular Pharmacology Branch, DTP, NCI, 2023).
Several values for one entry are separate records, joined by “and”; a condition that tells them apart may be missing. Equal entries are not always repeated. Each block holds one molecule with its values, some of them ahead of it.

Tested on: 324938-238-R-J1-PDC complex spheroid growth, % test/control
Assay: Anticancer human tumor 324938-238-R-J1-PDC patient-derived bladder carcinoma cell line growth inhibition [AhR]
Settings: for viability, T/C: stronger effect = lower value
Procedure, shortened: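 Agents were dosed in half-log steps down from roughly clinical Cmax, or from 10 microM where Cmax was unknown, alone and with AhR antagonists. Read-out: percent test/control growth of tumor spheroids containing HUVEC and MSC stromal cells.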

[1] = curve of first compound, second compound 0.1 µM
[2] = curve of first compound, second compound 0.316 µM
[3] = curve of first compound, second compound 1 µM
[4] = curve of first compound, second compound 3.16 µM
[5] = curve of first compound, second compound 10 µM
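Also: spheroids exposed to agents for seven days before viability read.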

SMILES: CCN(c1cc(-c2ccc(CN3CCOCC3)cc2)cc(C(=O)NCc2c(C)cc(C)[nH]c2=O)c1C)C1CCOCC1 + Cc1ccccc1N=Nc1ccc(NC(=O)c2ccnn2C)c(C)c1
IC50 [1]: > 3 µM
IC50 [2]: > 3 µM
IC50 [3]: > 3 µM
IC50 [4]: > 3 µM
IC50 [5]: > 3 µM
viability, T/C (second compound 0.1 µM, first compound 0.00949 µM): 123%
viability, T/C (second compound 0.1 µM, first compound 0.03 µM): 113%
viability, T/C (second compound 0.1 µM, first compound 0.0949 µM): 111%
viability, T/C (second compound 0.1 µM, first compound 0.3 µM): 93.2%
viability, T/C (second compound 0.1 µM, first compound 0.949 µM): 96.2%
viability, T/C (second compound 0.1 µM, first compound 3 µM): 93.3%
viability, T/C (second compound 0.316 µM, first compound 0.00949 µM): 100%
viability, T/C (second compound 0.316 µM, first compound 0.03 µM): 111%
viability, T/C (second compound 0.316 µM, first compound 0.0949 µM): 106%
viability, T/C (second compound 0.316 µM, first compound 0.3 µM): 103%
viability, T/C (second compound 0.316 µM, first compound 0.949 µM): 108%
viability, T/C (second compound 0.316 µM, first compound 3 µM): 94.8%
viability, T/C (second compound 1 µM, first compound 0.00949 µM): 102%
viability, T/C (second compound 1 µM, first compound 0.03 µM): 101%
viability, T/C (second compound 1 µM, first compound 0.0949 µM): 94.9%
viability, T/C (second compound 1 µM, first compound 0.3 µM): 90%
viability, T/C (second compound 1 µM, first compound 0.949 µM): 98.7%
viability, T/C (second compound 1 µM, first compound 3 µM): 93.2%
viability, T/C (second compound 3.16 µM, first compound 0.00949 µM): 82.4%
viability, T/C (second compound 3.16 µM, first compound 0.03 µM): 100%
viability, T/C (second compound 3.16 µM, first compound 0.0949 µM): 81.9%
viability, T/C (second compound 3.16 µM, first compound 0.3 µM): 90.2%
viability, T/C (second compound 3.16 µM, first compound 0.949 µM): 91.8%
viability, T/C (second compound 3.16 µM, first compound 3 µM): 93.6%
viability, T/C (second compound 10 µM, first compound 0.00949 µM): 88.4%
viability, T/C (second compound 10 µM, first compound 0.03 µM): 89.6%
viability, T/C (second compound 10 µM, first compound 0.0949 µM): 82%
viability, T/C (second compound 10 µM, first compound 0.3 µM): 87%
viability, T/C (second compound 10 µM, first compound 0.949 µM): 77.5%
viability, T/C (second compound 10 µM, first compound 3 µM): 84.8%

SMILES: CC[C@@]1(O)C(=O)OCc2c1cc1n(c2=O)Cc2cc3c(CN(C)C)c(O)ccc3nc2-1
viability, T/C (compound 0.000316 µM): 96% and 93.1% and 103%
viability, T/C (compound 0.001 µM): 96.2% and 106% and 108%
viability, T/C (compound 0.00316 µM): 66.5% and 84.8% and 87.8%
viability, T/C (compound 0.01 µM): 82.1% and 74.2% and 73.3%
viability, T/C (compound 0.0316 µM): 125% and 37.5% and 35.2%
viability, T/C (compound 0.1 µM): 106% and 17.9% and 16.8%
IC50 (curve of compound): > 0.1 µM and 0.0213 µM and 0.0201 µM

Further lines, with some results ahead:

IC50 [1]: > 10 µM
IC50 [2]: > 10 µM
IC50 [3]: > 10 µM
IC50 [4]: 9.01 µM
IC50 [5]: 7.49 µM
SMILES: COc1ccc([C@@H](O)c2cc(-c3ncnc4cc(N5CCOCC5)ccc34)c(F)cc2Cl)nn1 + Cc1ccccc1N=Nc1ccc(NC(=O)c2ccnn2C)c(C)c1
viability, T/C (second compound 0.1 µM, first compound 0.0316 µM): 109%
viability, T/C (second compound 0.1 µM, first compound 0.1 µM): 110%
viability, T/C (second compound 0.1 µM, first compound 0.316 µM): 98.5%
viability, T/C (second compound 0.1 µM, first compound 1 µM): 96.8%
viability, T/C (second compound 0.1 µM, first compound 3.16 µM): 80.7%
viability, T/C (second compound 0.1 µM, first compound 10 µM): 65.2%
viability, T/C (second compound 0.316 µM, first compound 0.0316 µM): 94.3%
viability, T/C (second compound 0.316 µM, first compound 0.1 µM): 99.9%
viability, T/C (second compound 0.316 µM, first compound 0.316 µM): 89.8%
viability, T/C (second compound 0.316 µM, first compound 1 µM): 83.4%
viability, T/C (second compound 0.316 µM, first compound 3.16 µM): 74.9%
viability, T/C (second compound 0.316 µM, first compound 10 µM): 58.6%
viability, T/C (second compound 1 µM, first compound 0.0316 µM): 100%
viability, T/C (second compound 1 µM, first compound 0.1 µM): 87.6%
viability, T/C (second compound 1 µM, first compound 0.316 µM): 93%
viability, T/C (second compound 1 µM, first compound 1 µM): 84.1%
viability, T/C (second compound 1 µM, first compound 3.16 µM): 72.2%
viability, T/C (second compound 1 µM, first compound 10 µM): 55.4%
viability, T/C (second compound 3.16 µM, first compound 0.0316 µM): 83.5%
viability, T/C (second compound 3.16 µM, first compound 0.1 µM): 83.5%
viability, T/C (second compound 3.16 µM, first compound 0.316 µM): 75.7%
viability, T/C (second compound 3.16 µM, first compound 1 µM): 65.1%
viability, T/C (second compound 3.16 µM, first compound 3.16 µM): 57.4%
viability, T/C (second compound 3.16 µM, first compound 10 µM): 48.8%
viability, T/C (second compound 10 µM, first compound 0.0316 µM): 72.7%
viability, T/C (second compound 10 µM, first compound 0.1 µM): 81.1%
viability, T/C (second compound 10 µM, first compound 0.316 µM): 72.7%
viability, T/C (second compound 10 µM, first compound 1 µM): 66.6%
viability, T/C (second compound 10 µM, first compound 3.16 µM): 59.2%
viability, T/C (second compound 10 µM, first compound 10 µM): 47%

IC50 (compound alone, run of 07/12/2022): > 10 µM
SMILES: CC(CO)NC(=O)c1cc(-c2ccc(Cl)cc2)nn(-c2cnn(C)c2)c1=O (stereo not drawn)
viability, T/C (compound 0.316 µM): 91% [middle of 21 runs]
viability, T/C (compound 1 µM): 82.4% [middle of 21 runs]
viability, T/C (compound 10 µM): 68.8% [middle of 19 runs]

IC50 (curve of compound): > 0.1 µM and 0.0781 µM
SMILES: Cn1ncnc1C1c2n[nH]c(=O)c3cc(F)cc(c23)NC1c1ccc(F)cc1 (stereo not drawn)
viability, T/C (compound 0.000316 µM): 107% and 101% and 111%
viability, T/C (compound 0.001 µM): 100% and 105% and 98%
viability, T/C (compound 0.00316 µM): 92.3% and 101% and 90.6%
viability, T/C (compound 0.01 µM): 97.1% and 74.3% and 87.5%
viability, T/C (compound 0.0316 µM): 98% and 79.1% and 61.1%
viability, T/C (compound 0.1 µM): 89.5% and 65.1% and 46.1%
